Patent US8932617B2, “Methods for treating or preventing restenosis and other vascular proliferative disorders” (priority 2004, dated 2015)
“And” between values parts separate entries of the source, which are not always exact repeats. Equal values may be shown once. “Also recorded” adds a separate entry of the source. Read-outs that look alike come from different tables or passages of the source. Marks after values point to notes of the source that are not given here.

What was measured:
[1] = test system: rat vascular SMC; assay: Smooth muscle cell migration, wound scrape assay with PDGF; type: cell-based; settings: for SMC migratory rate: 100 μM, PDGF 10 ng/mL, 24 hour period, control 15.8
Method: A wound scrape assay was performed using rat vascular SMC. The cells were grown to confluence on 60 mm dishes. The cells were then made quiescent by incubating them in media containing 0.1% serum for 24 hrs followed by treatment with Didox, Imidate (0-100 μM), or HU (0-1000 μM) in media containing 0.1% serum and platelet derived growth factor (PDGF) at concentration of 10 ng/mL. Linear wounds were made by scraping each plate with the tip of a 20 μL pipette. The ability of cells to migrate across the wound area was measured using digital microscopy. SPOT advanced software (Diagnostic Instruments, Inc., Sterling Heights, Mich.) was used to measure the wound immediately, 2, 4, 12 and 24 hrs following injury. The data are presented as rate of migration and represent the mean±SD.
SMC migration is also a component of neointimal proliferation. Therefore, additional studies were performed in order to determine the effects of these compounds on SMC migration. Using a wound scrape assay, SMC migration studies were carried out in the presence of Didox, Imidate, and HU. VSMC's were cultured to confluence on 60 mm dishes. The cells were made quiescent by incubating in media containing 0.1% serum. Following 24 hours of serum deprivation, Didox, Imidate, and HU were added to the wells (10-1000 μM) in the presence of PDGF (10 ng/mL) and a linear wound was made across the plate. SMC migration across the wound was monitored by digital microscopy over a 24 hour period. […] In contrast, HU (100 μM) had little effect on SMC migration, resulting in a migratory rate of […] (FIG. 4). […] This would be expected to contribute to the vascular protective effects afforded by these drugs.

[2] = test system: Rat vascular smooth muscle cells; assay: SMC proliferation, cell count by flow cytometry; type: cell-based; settings: 24 hours incubation, cells counted by flow cytometry, read-out: IC50 on inhibition of smooth muscle cell growth
Method: SMC were plated on 6 well dishes at a density of 2×10^5 cells per well. Cells were then treated with Didox (0-200 μM), Imidate (0-200 μM) or HU (0-1000 μM) and incubated for 24 hours. Following the 24 hour incubation period, the cells were trypsinized and collected in 15 mL centrifuge tubes. The cells were then centrifuged 5 minutes at 800×g. The supernatant was discarded and the pellet was resuspended in 5 ml PBS. The cells were centrifuged 6 minutes at 200×g. The supernatant was removed and the pellet was then thoroughly resuspended in 0.5 ml PBS. The cell suspension was transferred into tubes containing 70% ethanol, keeping the cells in fixative for greater than about 2 hours. The ethanol suspended cells were centrifuged 5 minutes at 200×g, and the ethanol was decanted. The cell pellet was resuspended in 5 ml PBS and after one minute was centrifuged 5 min at 200×g. The top layer of liquid was again removed and the cell pellet was resuspended in 1 ml PI/Triton X-100 staining solution with RNAse A. This staining solution was then incubated at room temperature for 30 minutes. Flow cytometry was then performed using a FACS Calibur (Becton Dickenson). The data are presented as the mean.
Didox, Imidate, and to a much lesser degree, HU, are known to be ribonucleotide reductase inhibitors (Elford, (1968) Biochem Biophys Res Commun 33:129-135; Elford et al., (1970) J Biol Chem 245:5228-5233; Elford et al., (1979) Cancer Res 39:844-851). ribonucleotide reductase catalyzes the reductive conversion of ribonucleotides to deoxynucleotides. This reductive reaction is a prime target for impeding cellular proliferation, and therefore amenable to inhibiting VSMC replication, because it is a rate limiting step in the biochemical pathway leading to DNA synthesis (Elford et al., (1970) J Biol Chem 245:5228-5233; Elford et al., (1979) Cancer Res 39:844-851; Takeda and Weber, (1981) Life Sci 28:1007-1014; Natsumeda et al., (1985) Cancer Res 45:2556-2559). […] Therefore, the IC50 of each compound on inhibition of smooth muscle cell growth was determined. […]

[3] = test system: SMC dATP pools; assay: Intracellular dNTP quantitation (dATP pools) by HPLC; type: cell-based, rat; settings: 24 hours; for dATP levels: control 303; for maximal reduction in dATP content: Didox 0-200 μM, Imidate 0-200 μM, HU 0-1000 μM
Method: SMC were plated in T150 flasks and treated with Didox (0-200 μM), Imidate (0-200 μM) or HU (0-1000 μM) and incubated for 24 hours. Following the 24 hour incubation period, the cells were trypsinized and collected in 50 mL centrifuge tubes along with the incubation media. All the extraction steps were performed on ice. Immediately before processing, cells were counted and viability determined using the trypan blue exclusion method. The cells were then centrifuged 5 minutes at 800×g. The cell pellet was then deproteinized with the same volume of 6% TCA, vortexed for 20 s and incubated on ice for 10 minutes. The acid cell extracts were centrifuged 10 min at 2000×g. The supernatants were then supplemented with an equal volume of distilled water, vortexed for 60 s and neutralized by the addition of 5M K2CO3 prior to HPLC analysis. dNTP detection was carried out using an ESA (Chelmsford, Mass.) HPLC chromatographic system with UV-Vis detection. Chromatographic separations were performed using a TosoHaas C18 reverse phase column (ODS 80Tm 250×4.6 mm, 5 μm pore). The mobile phase was delivered at a rate of 1.0 mL/min during the analysis using the following stepwise gradient elution program: A-B (80-20) at 0 min; (40-60) at 30 min; (40-60) at 40 min and (80-20) at 45 min. Buffer A contained 10 mM tetrabutylammonium sulfate, 10 mM KH2PO4 and 0.25% MeOH, and adjusted to pH 6.9. Buffer B consisted of 5.6 mM tetrabutylammonium sulfate, 50 mM KH2PO4 and 30% MeOH, and neutralized to pH 7.0. The injection volume for analysis was 50 μL. Detection was carried out at 254 nm.
In order to further validate that the observed anti-proliferative properties afforded by these compounds was through inhibition of ribonucleotide reductase activity, the effects of these compounds on intracellular dATP pools were measured.

[4] = test system: rat carotid artery, balloon mediated injury (restenosis); assay: Rat model of balloon mediated carotid artery injury (Example 1), morphometric analysis; type: in vivo; settings: two weeks post injury; intraperitoneal injection; vs untreated injured artery
Method: To determine the ability of the ribonucleotide reductase inhibitors to affect restenosis, a rat model of balloon mediated carotid artery injury was utilized. Percutaneous transluminal carotid angioplasty (PTCA) was performed using a 2F Fogarty Embolectomy Catheter, which was inserted through the right, external carotid artery and inflated (2 atm) and deflated four times inside the right common carotid artery and rotated to cause endothelial injury. Immediately following the carotid injury, the rats received ribonucleotide reductase inhibitors, Didox (N,3,4-trihydroxybenzamide) Imidate (ethyl-3,4,5-trihydroxybenzenecarboximidate.HCl), or Hydroxyurea via intraperitoneal injection. The degree of restenosis was assessed using morphometric analysis at two weeks post injury.

[5] = test system: rat carotid artery, balloon mediated injury (restenosis); assay: Rat balloon carotid injury (Example 2), morphometric analysis at 2 and 6 weeks; type: in vivo; settings: for decrease in neointimal area / decrease in intima/media ratio: 200 mg kg^-1 d^-1 i.p. for 7 days
From the text: Male Wistar rats, weighing 400-450 g (Harlan) were fed standard pellet feed and given water ad libitum. The experimental protocol was designed in accordance with Institutional ILACUC standards. Animals were anesthetized with Isoflurane (1.5-2%) in air. The right carotid artery was exposed and a 2F Fogarty balloon embolectomy catheter (Baxter) was inserted via an external carotid arteriotomy incision. The catheter was advanced to the common carotid artery, inflated to a pressure of 2 atm and rotated in a forward and retrograde direction. The catheter was then deflated and the process repeated three times. Treatment cohorts were divided into 5 groups (n=6-8/group): Control (sham operated), Didox (200 mg-kg^−1 d^−1), Imidate (200 mg kg^−1)HU (200 mg kg^−1 d^−1) and vehicle (saline). Drugs were administered daily by i.p. injection for a period of 7 days after injury. At 2 weeks post-injury, rats were euthanized by pentobarbital overdose and perfused with 10% buffered formalin Carotid arteries were removed and placed in the same fixative. Tissues were then embedded in paraffin, and 4 to 5 sections (4 μm) were cut at multiple levels. These sections were then stained with hematoxylin-eosin or elastic-van Gieson stain. Sections were examined microscopically and the cross-sectional areas of the lumen, neointima (from the internal elastic lamina to the lumen), and media were determined using digital microscopy with Spot Advanced software. The intima-to-media (I/M) ratio was then calculated from the determined mean. The data represent the mean±SD.
The effects of Didox, Imidate, and Hydroxyurea (HU) on the vascular remodeling process following arterial injury were determined using a rat model of balloon mediated carotid injury. Each compound (200 mg kg^−1 d^−1) was delivered via i.p. injection for a period of 7 days post injury. These dosages are based on previously published reports and represent ½ the maximum tolerated dose of Hydroyurea in rats (Gupta and Yaffe, (1982) Pediatr Pharmacol (New York) 2:85-91; Vaughan et al., (1989) Cancer Chemother Pharmacol 23:26-30).
At 14 days post injury the animals were sacrificed and morphometric analysis was carried out in order to asses the histopathological changes in the vessel wall (FIG. 1). […] HU afforded similar vascular protective effects to those observed with Didox and Imidate, resulting in a 55% decrease in neointimal area and a 63% decrease in intima/media ratio (FIG. 2). […] However, because the remodeling process occurs over a prolonged period of time, additional studies were performed in order to determine whether the vascular protective effects observed would be mitigated over time.
To further investigate long-term efficacy of the one week dosing regimen, the duration of the study period was increased to 6 weeks. […] The beneficial effect of ribonucleotide reductase inhibition persisted over the long term. Each compound (200 mg kg^−1 d^−1) was given i.p. for a period of 7 days followed by a 5 week recovery period. […] Similarly, Imidate offered a 61% reduction in neointimal area and a 62% reduction in intima/media ratio (FIG. 3).

[6] = 6 weeks post injury, 5 week recovery

SMILES | SMC migratory rate [1] | IC50 ([2]; Rattus norvegicus) | dATP levels ([3]; 5 μM) | dATP levels ([3]; 10 μM) | dATP levels ([3]; 50 μM) | dATP levels ([3]; 100 μM) | dATP levels ([3]; 200 μM) | maximal reduction in dATP content [3] | Lumen, % change as compared to injured vessel (increase in lumen area) [4] | Neointima, % change as compared to injured vessel (decrease in neointimal formation) [4] | Neointima/Media, % change as compared to injured vessel (reduction in intima/media ratio) [4] | Wall Thickness, % change as compared to injured vessel (reduction) [4] | decrease in neointimal area [5, 6] | decrease in intima/media ratio ([5]; 14 days post injury) | decrease in neointimal area ([5]; 14 days post injury) | change in medial area ([5]; one week of systemic administration after balloon injury) | IC50 [2] | effect on SMC migration ([1]; HU concentrations up to 1 mM, listed as HU) | dATP levels ([3]; 500 μM) | dATP levels ([3]; 1000 μM)
CCOC(=N)c1cc(O)c(O)c(O)c1.Cl [Imidate, ethyl-3,4,5-trihydroxybenzenecarboximidate-HCl] | 0.9 µm/h | 82 µM | 293 Pmoles/10^7 cells | 311 Pmoles/10^7 cells | 210 Pmoles/10^7 cells | 184* Pmoles/10^7 cells | 173* Pmoles/10^7 cells | 42% | ↑19 ± 5% | ↓ 65 ± 7% | ↓ 69 ± 8% | ↓ 41 ± 7% | 61% | 55% and 60% | 57% | small but statistically significant decrease in medial area | – | – | – | –
O=C(NO)c1ccc(O)c(O)c1 [Didox, N-3,4-trihydroxybenzamide] | 1.7 µm/h | – | 297 Pmoles/10^7 cells | 260 Pmoles/10^7 cells | 203* Pmoles/10^7 cells | 140* Pmoles/10^7 cells | 126* Pmoles/10^7 cells | 58% | – | – | – | – | 64% | 61% and 60% | 62% | – | 67 µM | – | – | –
NC(=O)NO [Hydroxyurea, reference compound] | 15.1 µm/h | 266 µM | 320 Pmoles/10^7 cells | – | – | 266 Pmoles/10^7 cells | – | 69% | ↑22 ± 5% | ↓ 91 ± 6% | ↓ 93 ± 7% | ↓ 54 ± 9% | 71% | 63% | 55% | – | – | No further inhibition; also recorded: no effect on SMC migration | 93 Pmoles/10^7 cells | 92 Pmoles/10^7 cells
